{"source": "patent US11820773B2", "about": "“Tricyclic compounds” (ALIGOS THERAPEUTICS, INC., priority 2020, dated 2023)", "data": [{"test_system": "HBV", "test": "HBV-DNA antiviral assay using HepG2.117 cells (intracellular HBV DNA by qPCR)", "assay_type": "cell-based, genotype D HBV", "conditions": "Hepatitis B virus, 72 h, HBV DNA inhibition, 3 days incubation, 2% DMSO", "outline": "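Endpoints are intracellular HBV DNA by qPCR (interpolated from a gBlock standard curve) and ATP-based viability in duplicate plates. Doxycycline-free HepG2.117 Tet-off cells received compounds (9 concentrations, 4-fold steps, 2% DMSO) for 3 days. Inhibition normalised to DMSO wells; EC50/EC90/CC50 by curve fitting.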", "units": {"EC50": "nM"}, "values": [{"compound": "C[C@@H]1Cc2c(n3ncc(Cc4ccccc4)c3n(-c3ccc(-c4nn(C)c(=O)[nH]4)cc3)c2=O)CN1C(=O)c1ccc(Br)c(C(F)(F)F)c1", "note": "(stereo in doubt) [Compound 82a, rac-(11R)-5-benzyl-12-[4-bromo-3-(trifluoromethyl)benzoyl]-11-methyl-7-[4-(1-methyl-5-oxo-4H-1,2,4-triazol-3-yl)phenyl]-2,3,7,12-tetrazatricyclo[7.4.0.0^2,6]trideca-1(9),3,5-trien-8-one]", "EC50": "< 50"}, {"compound": "C[C@H]1Cc2c(n3ncc(Cc4ccccc4)c3n(-c3ccc(-c4nn(C)c(=O)[nH]4)cc3)c2=O)CN1C(=O)c1ccc(Br)c(C(F)(F)F)c1", "note": "(stereo in doubt) [Compound 82b, rac-(11S)-5-benzyl-12-[4-bromo-3-(trifluoromethyl)benzoyl]-11-methyl-7-[4-(1-methyl-5-oxo-4H-1,2,4-triazol-3-yl)phenyl]-2,3,7,12-tetrazatricyclo[7.4.0.0^2,6]trideca-1(9),3,5-trien-8-one]", "EC50": "50 to 500"}, {"compound": "Cc1nn[nH]c1-c1cc(-n2c(=O)c3c(n4ncc(Cc5ccccc5)c24)CN(C(=O)c2ccc(Br)c(C(F)(F)F)c2)[C@H](C)C3)nn1C", "note": "(stereo in doubt) [Compound 83a, rac-(11R)-5-benzyl-12-[4-bromo-3-(trifluoromethyl)benzoyl]-11-methyl-7-[1-methyl-5-(4-methyl-1H-triazol-5-yl)pyrazol-3-yl]-2,3,7,12-tetrazatricyclo[7.4.0.0^2,6]trideca-1(9),3,5-trien-8-one]", "EC50": "< 50"}, {"compound": "Cc1nn[nH]c1-c1cc(-n2c(=O)c3c(n4ncc(Cc5ccccc5)c24)CN(C(=O)c2ccc(Br)c(C(F)(F)F)c2)[C@@H](C)C3)nn1C", "note": "(stereo in doubt) [Compound 83b, rac-(11S)-5-benzyl-12-[4-bromo-3-(trifluoromethyl)benzoyl]-11-methyl-7-[1-methyl-5-(4-methyl-1H-triazol-5-yl)pyrazol-3-yl]-2,3,7,12-tetrazatricyclo[7.4.0.0^2,6]trideca-1(9),3,5-trien-8-one]", "EC50": "50 to 500"}, {"compound": "CC[C@@H]1Cc2c(n3ncc(Cc4ccccc4)c3n(-c3ccc4c(NC)n[nH]c4c3)c2=O)CN1C(=O)c1ccc(Br)c(C(F)(F)F)c1", "note": "(stereo in doubt) [Compound 84a, rac-(11R)-5-benzyl-12-[4-bromo-3-(trifluoromethyl)benzoyl]-11-ethyl-7-[3-(methylamino)-1H-indazol-6-yl]-2,3,7,12-tetrazatricyclo[7.4.0.0^2,6]trideca-1(9),3,5-trien-8-one]", "EC50": "< 50"}, {"compound": "CC[C@H]1Cc2c(n3ncc(Cc4ccccc4)c3n(-c3ccc4c(NC)n[nH]c4c3)c2=O)CN1C(=O)c1ccc(Br)c(C(F)(F)F)c1", "note": "(stereo in doubt) [Compound 84b, rac-(11S)-5-benzyl-12-[4-bromo-3-(trifluoromethyl)benzoyl]-11-ethyl-7-[3-(methylamino)-1H-indazol-6-yl]-2,3,7,12-tetrazatricyclo[7.4.0.0^2,6]trideca-1(9),3,5-trien-8-one]", "EC50": "< 50"}, {"compound": "CNC(=O)c1cnc(-n2c(=O)c3c(n4ncc(CC(C)C)c24)CN(C(=O)c2ccc(Br)c(C(F)(F)F)c2)[C@H](C)C3)nc1", "note": "(stereo in doubt) [Compound 85a, N-methyl-2-[rac-(11R)-12-[4-bromo-3-(trifluoromethyl)benzoyl]-5-isobutyl-11-methyl-8-oxo-2,3,7,12-tetrazatricyclo[7.4.0.0^2,6]trideca-1(9),3,5-trien-7-yl]pyrimidine-5-carboxamide]", "EC50": "< 50"}, {"compound": "CNC(=O)c1cnc(-n2c(=O)c3c(n4ncc(CC(C)C)c24)CN(C(=O)c2ccc(Br)c(C(F)(F)F)c2)[C@@H](C)C3)nc1", "note": "(stereo in doubt) [Compound 85b, N-methyl-2-[rac-(11S)-12-[4-bromo-3-(trifluoromethyl)benzoyl]-5-isobutyl-11-methyl-8-oxo-2,3,7,12-tetrazatricyclo[7.4.0.0^2,6]trideca-1(9),3,5-trien-7-yl]pyrimidine-5-carboxamide]", "EC50": "< 50"}, {"compound": "CC(C)Cc1cnn2c3c(c(=O)n(-c4ccc5c(c4)ncn5C)c12)C[C@@H](C)N(C(=O)c1ccc(Br)c(C(F)(F)F)c1)C3", "note": "(stereo in doubt) [Compound 86a, rac-(11R)-12-[4-bromo-3-(trifluoromethyl)benzoyl]-5-isobutyl-11-methyl-7-(1-methylbenzimidazol-5-yl)-2,3,7,12-tetrazatricyclo[7.4.0.0^2,6]trideca-1(9),3,5-trien-8-one]", "EC50": "< 50"}, {"compound": "CC(C)Cc1cnn2c3c(c(=O)n(-c4ccc5c(c4)ncn5C)c12)C[C@H](C)N(C(=O)c1ccc(Br)c(C(F)(F)F)c1)C3", "note": "(stereo in doubt) [Compound 86b, rac-(11S)-12-[4-bromo-3-(trifluoromethyl)benzoyl]-5-isobutyl-11-methyl-7-(1-methylbenzimidazol-5-yl)-2,3,7,12-tetrazatricyclo[7.4.0.0^2,6]trideca-1(9),3,5-trien-8-one]", "EC50": "50 to 500"}, {"compound": "CCC[C@@H]1Cc2c(n3ncc(Cc4ccccc4)c3n(-c3ccc4c(NC)n[nH]c4c3)c2=O)CN1C(=O)c1ccc(Br)c(C(F)(F)F)c1", "note": "(stereo in doubt) [Compound 88a, rac-(11R)-5-benzyl-12-[4-bromo-3-(trifluoromethyl)benzoyl]-7-[3-(methylamino)-1H-indazol-6-yl]-11-propyl-2,3,7,12-tetrazatricyclo[7.4.0.0^2,6]trideca-1(9),3,5-trien-8-one]", "EC50": "< 50"}, {"compound": "CCC[C@H]1Cc2c(n3ncc(Cc4ccccc4)c3n(-c3ccc4c(NC)n[nH]c4c3)c2=O)CN1C(=O)c1ccc(Br)c(C(F)(F)F)c1", "note": "(stereo in doubt) [Compound 88b, rac-(11S)-5-benzyl-12-[4-bromo-3-(trifluoromethyl)benzoyl]-7-[3-(methylamino)-1H-indazol-6-yl]-11-propyl-2,3,7,12-tetrazatricyclo[7.4.0.0^2,6]trideca-1(9),3,5-trien-8-one]", "EC50": "< 50"}, {"compound": "CNC(=O)c1cnc(-n2c(=O)c3c(n4ncc(CC(C)C)c24)CN(C(=O)c2ccc(Br)c(C(F)(F)F)c2)[C@H](C)C3)cn1", "note": "(stereo in doubt) [Compound 89a, N-methyl-5-[rac-(11R)-12-[4-bromo-3-(trifluoromethyl)benzoyl]-5-isobutyl-11-methyl-8-oxo-2,3,7,12-tetrazatricyclo[7.4.0.0^2,6]trideca-1(9),3,5-trien-7-yl]pyrazine-2-carboxamide]", "EC50": "< 50"}, {"compound": "CNC(=O)c1cnc(-n2c(=O)c3c(n4ncc(CC(C)C)c24)CN(C(=O)c2ccc(Br)c(C(F)(F)F)c2)[C@@H](C)C3)cn1", "note": "(stereo in doubt) [Compound 89b, [rac-(11S)-12-[4-bromo-3-(trifluoromethyl)benzoyl]-5-isobutyl-11-methyl-8-oxo-2,3,7,12-tetrazatricyclo[7.4.0.0^2,6]trideca-1(9),3,5-trien-7-yl]pyrazine-2-carboxamide]", "EC50": "50 to 500"}, {"compound": "C[C@H]1Cc2c(n3ncc(CC4CC4)c3n(-c3ccc(C(=O)N(C)CO)cc3)c2=O)CN1C(=O)c1ccc(Br)c(C(F)(F)F)c1", "note": "(stereo in doubt) [Compound 91, N-(hydroxymethyl)-N-methyl-4-[rac-(11S)-12-[4-bromo-3-(trifluoromethyl)benzoyl]-5-(cyclopropylmethyl)-11-methyl-8-oxo-2,3,7,12-tetrazatricyclo[7.4.0.0^2,6]trideca-1 (9),3,5-trien-7-yl]benzamide]", "EC50": "> 5000"}]}]}
